Source: PMC4594923, “Food Polyphenols Fail to Cause a Biologically Relevant Reduction of COX-2 Activity” (PLoS ONE, 2015)
pIC50: −log10 of the molar value. Marks after values point to notes of the source that are not given here.

What was measured:
COX–2 = conditions: read-out: IC50, RAW 264.7 cells; cited from earlier work
[1] = test system: arachidonic acid (AA) cascade; assay: plasma oxylipin/PG levels in LPS induced sepsis in mice; assay type: in vivo, C57BL/6N mice;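 also: male C57BL/6N mice given LPS, plasma oxylipins quantified by LC-MS after solid-phase extraction, pretreatment or vehicle given intraperitoneally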
Source text: Twelve week old male C57BL/6N mice (Charles River, Sulzfeld, Germany) were used for all experiments. C57BL/6 male mice (H2^b, 11–13 weeks of age) were obtained from Charles River (Sulzfeld, Germany). Animals were cared for in accordance with the institution’s guidelines for experimental animals and with the guidelines of the American Physiological Society. […] Mice were monitored closely and if they appeared compromised (i.e. inactivity, no intake of food or water) after compound or LPS injection the experiment was terminated.
Oxylipin levels were analyzed in plasma and tissues by LC-MS following SPE extraction of 200 μl plasma or tissue homogenate (50 mg) on Chromabond C18 ec cartridges (Machery-Nagel, Düren, Germany) [19].
(§1) GraphPad Prism 5.0 (GraphPad Software, San Diego, USA) was used for data analysis, the fitting of dose response curves and calculation of the IC50 values. Statistical differences were determined by Dunnetts test (LPS vs. other groups).

ovine recombinant COX–1 = target: T1, ovine recombinant COX–1 (Ovis aries, UniProt P05979); assay: cell-free COX–1 enzyme assay (PGE2 formation, LC-MS); assay type: biochemical; design: purchased Cayman Chemicals/ Biomol, Hamburg, Germany
T1 sequence (P05979 25-600): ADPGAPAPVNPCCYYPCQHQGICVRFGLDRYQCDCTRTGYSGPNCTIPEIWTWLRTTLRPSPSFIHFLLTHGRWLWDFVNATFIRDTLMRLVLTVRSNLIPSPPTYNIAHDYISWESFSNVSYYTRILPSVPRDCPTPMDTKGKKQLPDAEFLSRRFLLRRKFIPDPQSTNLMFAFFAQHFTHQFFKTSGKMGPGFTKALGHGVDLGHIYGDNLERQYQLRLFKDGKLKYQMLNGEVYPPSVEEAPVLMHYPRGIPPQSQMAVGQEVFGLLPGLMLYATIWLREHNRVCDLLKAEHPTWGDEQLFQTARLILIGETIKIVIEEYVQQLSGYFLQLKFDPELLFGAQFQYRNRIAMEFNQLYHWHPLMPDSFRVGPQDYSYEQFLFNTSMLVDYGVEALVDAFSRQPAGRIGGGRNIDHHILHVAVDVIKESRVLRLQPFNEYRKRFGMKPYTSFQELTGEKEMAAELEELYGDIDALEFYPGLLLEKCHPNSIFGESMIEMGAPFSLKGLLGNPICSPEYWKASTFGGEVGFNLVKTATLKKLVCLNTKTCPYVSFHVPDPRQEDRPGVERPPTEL
Procedure: The in vitro assays were performed as described [6, 16, 18] and COX metabolites were quantified by LC-MS [18].
Primary human monocytes were freshly isolated from human blood. Blood was collected from healthy human subjects after written informed consent was obtained. […] After 24 h, the supernatant was sampled for LC-MS and cells were collected for the COX–2 expression analysis by Western Blotting.
as §1

COX–2 protein = conditions: cited from earlier work
[2] = mice, compound i. p. 100 mg/kg bw 2 h before LPS, 24 h after LPS, vs. LPS group
[3] = plasma 24 h after LPS treatment, LPS +, mean

In the case of `O=c1cc(-c2ccc(O)cc2)oc2cc(O)cc(O)c12` [Apigenin, apigenin], the pIC50 (COX–2) is given as […], the “plasma epoxy- and dihydroxy-fatty acid (FA) metabolites of the CYP pathway” value [1, 2] is given as “reduced” and the “sum of DiHETrEs in plasma” value [1, 2] is given as “decrease”. For the same compound, the “sum of linoleic acid (LA) derived epoxy-metabolites in plasma” value [1, 2] was “decrease”, the “1a,1b-dihomo-PGF2α concentration in plasma” value [1, 3] was […] and the “4,5-DiHDPE concentration in plasma” value [1, 3] was […]. For the same compound, the “4-HDHA concentration in plasma” value [1, 3] was […], the “5(6)-EpETrE concentration in plasma” value [1, 3] was […] and the “5,6-DiHETrE concentration in plasma” value [1, 3] was […]. For the same compound, the “5-HEPE concentration in plasma” value [1, 3] was […], the “5-HETE concentration in plasma” value [1, 3] was […] and the “5-iPF2α concentration in plasma” value [1, 3] was […]. The “5-oxo-ETE concentration in plasma” value [1, 3] was […], the “6-keto-PGF1α concentration in plasma” value [1, 3] was […] and the “7,8-DiHDPE concentration in plasma” value [1, 3] was […]. The “7-HDHA concentration in plasma” value [1, 3] was […], the “8(9)-EpETrE concentration in plasma” value [1, 3] was […] and the “8,9-DiHETrE concentration in plasma” value [1, 3] was […]. The “8-HDHA concentration in plasma” value [1, 3] was […], the “8-HETE concentration in plasma” value [1, 3] was […] and the “8-iPF2a concentration in plasma” value [1, 3] was […]. The “9(10)-EpODE concentration in plasma” value [1, 3] was […], the “9(10)-EpOME concentration in plasma” value [1, 3] was […] and the “9(10)-Epoxystearic acid concentration in plasma” value [1, 3] was […]. For the same compound, the “9,10,13-TriHOME concentration in plasma” value [1, 3] was […], the “9,10-DiHODE concentration in plasma” value [1, 3] was […] and the “9,10-DiHOME concentration in plasma” value [1, 3] was […]. For the same compound, the “9,10-Dihydroxystearic acid concentration in plasma” value [1, 3] was […], the “9,12,13-TriHOME concentration in plasma” value [1, 3] was […] and the “9-HODE concentration in plasma” value [1, 3] was […]. For the same compound, the “9-HOTrE concentration in plasma” value [1, 3] was […], the “9-oxo-ODE concentration in plasma” value [1, 3] was […] and the “10(11)-EpDPE concentration in plasma” value [1, 3] was […]. The “10,11-DiHDPE concentration in plasma” value [1, 3] was […], the “10-HDHA concentration in plasma” value [1, 3] was […] and the “11(12)-EpETrE concentration in plasma” value [1, 3] was […]. For the same compound, the “11,12-DiHETE concentration in plasma” value [1, 3] was […], the “11,12-DiHETrE concentration in plasma” value [1, 3] was […] and the “11-HDHA concentration in plasma” value [1, 3] was […]. For the same compound, the “11-HETE concentration in plasma” value [1, 3] was […], the “12(13)-EpODE concentration in plasma” value [1, 3] was […] and the “12(13)-EpOME concentration in plasma” value [1, 3] was […]. For the same compound, the “12,13-DiHODE concentration in plasma” value [1, 3] was […], the “12,13-DiHOME concentration in plasma” value [1, 3] was […] and the “12-HEPE concentration in plasma” value [1, 3] was […]. For the same compound, the “12-HETE concentration in plasma” value [1, 3] was […], the “13(14)-EpDPE concentration in plasma” value [1, 3] was […] and the “13,14-DiHDPE concentration in plasma” value [1, 3] was […]. The “13,14-dihydro-15-keto-PGE1 concentration in plasma” value [1, 3] was […], the “13,14dihydro-15-keto-PGF2α concentration in plasma” value [1, 3] was […] and the “13-HDHA concentration in plasma” value [1, 3] was […]. The “13-HODE concentration in plasma” value [1, 3] was […], the “13-HOTrE concentration in plasma” value [1, 3] was […] and the “13-oxo-ODE concentration in plasma” value [1, 3] was […]. For the same compound, the “14(15)-EpETE concentration in plasma” value [1, 3] was […], the “14(15)-EpETrE concentration in plasma” value [1, 3] was […] and the “14,15-DiHETE concentration in plasma” value [1, 3] was […]. The “14,15-DiHETrE concentration in plasma” value [1, 3] was […], the “14-HDHA concentration in plasma” value [1, 3] was […] and the “15(16)-EpODE concentration in plasma” value [1, 3] was […]. For the same compound, the “15(S)-HETrE concentration in plasma” value [1, 3] was […], the “15,16-DiHODE concentration in plasma” value [1, 3] was […] and the “15-HETE concentration in plasma” value [1, 3] was […]. For the same compound, the “15-oxo-ETE concentration in plasma” value [1, 3] was […], the “16(17)-EpDPE concentration in plasma” value [1, 3] was […] and the “16,17-DiHDPE concentration in plasma” value [1, 3] was […]. For the same compound, the “16-HDHA concentration in plasma” value [1, 3] was […], the “17(18)-EpETE concentration in plasma” value [1, 3] was […] and the “17,18-DiHETE concentration in plasma” value [1, 3] was […]. The “17-HDHA concentration in plasma” value [1, 3] was […], the “18-HEPE concentration in plasma” value [1, 3] was […] and the “19(20)-EpDPE concentration in plasma” value [1, 3] was […]. For the same compound, the “19,20-DiHDPE concentration in plasma” value [1, 3] was […], the “20-HDHA concentration in plasma” value [1, 3] was […] and the “20-HEPE concentration in plasma” value [1, 3] was […]. The “20-HETE concentration in plasma” value [1, 3] was […], the “EKODE concentration in plasma” value [1, 3] was […] and the “PGD2 concentration in plasma” value [1, 3] was […]. The “PGE2 concentration in plasma” value [1, 3] was […], the “PGF1α concentration in plasma” value [1, 3] was […] and the “PGF2α concentration in plasma” value [1, 3] was […]. For the same compound, the “TXB2 concentration in plasma” value [1, 3] was […], the “decreased PGE2 formation in comparison to the control, COX–1” value (ovine recombinant COX–1; 100 μM) was 31% and the “inhibition, COX–1 enzyme assay” value (ovine recombinant COX–1; up to 100 μM) was “inhibition < 50%(up to 100 μM)”. For the same compound, the “COX–2 (protein) levels, RAW 264.7 cells” value (COX–2 protein) was “reduced COX–2 levels”.
